Source: US9018391B2, “Inhibitors of beta-secretase” (Boehringer Ingelheim International GmbH, priority 2012, dated 2015)

Experiments:
hERG channel = hERG channel (Homo sapiens (Human), UniProt Q12809); assay: hERG-Channel Assay (Assay 2), whole-cell patch clamp in HEK293 cells stably transfected with hERG cDNA; format: cell-based; settings: human, HEK293 cells stably transfected with hERG cDNA, pH 7.4, 35° C.
Source text: hERG-Channel Assay (Assay 2)
Cells: HEK (human embryonic kidney) 293 cells were stably transfected with hERG cDNA.
Cells were superfused with a bath solution containing (mM): NaCl (137), KCl (4.0), MgCl2 (1.0), CaCl2 (1.8), Glucose (10), HEPES (10), pH 7.4 with NaOH. Patch pipettes were made from borosilicate glass tubing using a horizontal puller and filled with pipette solution containing (mM): K-aspartate (130), MgCl2 (5.0), EGTA (5.0), K2ATP (4.0), HEPES (10.0), pH 7.2 with KOH. Resistance of the microelectrodes was in the range between 2 and 5 MΩ.
Stimulation and Recording:
Membrane currents were recorded using an EPC-10 patch clamp amplifier and PatchMaster software. hERG-mediated membrane currents were recorded at 35° C., using the whole-cell configuration of the patch-clamp technique. Transfected HEK293 cells were clamped at a holding potential of −60 mV and hERG-mediated inactivating tail currents were elicited using a pulse pattern with fixed amplitudes (activation/inactivation: 40 mV for 2000 ms; recovery: −120 mV for 2 ms; ramp to 40 mV in 2 ms; inactivating tail current: 40 mV for 50 ms) repeated at 15 s intervals. During each inter-pulse interval, 4 pulses scaled down by a factor of 0.2 were recorded for a P/n leak subtraction procedure. Rs compensation was employed up to a level that safely allowed recording devoid of ringing.
Compound Preparation and Application:
The different concentrations of the test compounds were applied sequentially on each of the different cells investigated. A steady state level of baseline current was measured for at least 6 sweeps prior to the application of the first test compound concentration.
The test compound was dissolved in DMSO to yield a master stock solution which was diluted further in DMSO to stock solutions needed for the lower concentrations. Final dilutions in extracellular buffer were prepared freshly from these stocks by a 1:1000 dilution step each before starting the experiments.
Peak current amplitudes were measured 3 ms after the ramp to +40 mV. For baseline and each concentration, the peak currents of the three last sweeps before application of the next concentration were averaged. Residual currents (I/I0) were calculated for each cell as the fraction of actual average peak current and average baseline peak current.

Human Hepatocytes = assay: In Vitro Hepatocyte Stability Assay (Assay 4); format: in vitro ADME; settings: predicted blood clearance as percent of hepatic blood flow
Description: In Vitro Hepatocyte Stability Assay (Assay 4)
The metabolic degradation of test compounds was assayed in a hepatocyte suspension. Cryopreserved hepatocytes were incubated in an appropriate buffer system (e.g., Dulbecco's modified eagle medium plus 3.5 μg glucagon/500 mL, 2.5 mg insulin/500 mL and 3.75 mg/500 mL hydrocortison) containing 5% species serum. Following a 30 min preincubation in an incubator (37° C., 10% CO2), 5 μl of test compound solution (80 μM; from 2 mM in DMSO stock solution diluted 1:25 with medium) were added into 395 μl hepatocyte suspension (cell density in the range 0.25−5×10^6 cells/mL, typically 1×10^6 cells/mL; final concentration of test compound final DMSO concentration […]).
The cells were incubated for six h (incubator, orbital shaker) and samples (25 μl) were taken at 0, 0.5, 1, 2, 4 and 6 h. Samples were transferred into acetonitrile and pelleted by centrifugation (5 min). The supernatant was transferred to a new 96 DeepWell™ plate, evaporated under nitrogen and resuspended. Decline of compound was analyzed by HPLC-MS/MS. CLint (in vitro hepatic intrinsic clearance) was calculated as follows: CLint=Dose/AUC=(C0/CD)/(AUD+Clast/k)×1000/60
C0: initial concentration in the incubation [μM];
CD: cell density of vital cells [cells/mL];
AUD: area under the data [μM×h];
Clast: concentration of last data point [μM];
k: slope of the regression line for compound decline [h^−1].
The calculated in vitro hepatic intrinsic clearance was scaled up to the intrinsic in vivo hepatic clearance (Clint in vivo) and used to predict hepatic in vivo blood clearance (CL) by the use of a liver model (well-stirred model), as follows: CLint,in vivo[mL/min/kg]=(CLint[μL/min/10^6 cells]×hepatocellularity[10^6 cells/g liver]×liver factor [g/kg body weight])/1000 CL[mL/min/kg]=CLint,to vivo×hepatic blood flow[ml/min/kg]/(CLint,in vivo[ml/min/kg]+hepatic blood flow[mL/min/kg])
The in vivo blood clearance was transformed into percent of the hepatic blood flow (% Qh): % Qh=CL[mL/min/kg]/hepatic blood flow[mL/min/kg])×100
Hepatocellularity, human: 1.2×10^7 cells/g liver;
Liver factor, human: 25.7 g/kg body weight;
Hepatic blood flow, human: 21 mL/(min×kg).

[1] = system: brain amyloid peptides Aβ1-x; assay: Rat Brain Aβ Lowering Assay (Assay 5); format: in vivo; settings: 3 hrs after dosing
Description: Rat Brain Aβ Lowering Assay (Assay 5)
The animals were sacrificed 3 hrs after dosing, and brains were excised, dissected into cerebellum and left and right cerebra and flash-frozen in liquid nitrogen.
The cerebrum was homogenized (5 volumes per weight) in 20 mM Tris-HCL, pH 8.5, 0.2% Triton-X100 supplemented with protease inhibitors (cOmplete, Roche Applied Science) at 4° C. using a glass Dounce homogenizer. The homogenate was centrifuged at 120,000×g for 60 min at 4° C., and the supernatant was collected and analyzed for […] using immunoassay with chemiluminescent detection (Meso-Scale Discovery, Rockville, Md. (MSD)).
Streptavidin 96-well plates (MSD) were pre-blocked with 5% Blocker A solution (MSD) for 1 hr at rt on an orbital shaker and washed 4 times with phosphate buffered saline (PBS). The wells were pre-coated with 20 ng/well of biotinylated antibody SIG-39155 (Clone M3.2, specific for amino acids 10-15 of the rodent Aβ) for 1 hr at rt and washed 4 times with PBS. For Aβ1-x analysis, 25 μl of either the cleared brain lysates or Aβ1-40 standards (8-500 pg/ml, with 2× increment) were incubated for 1 hr at rt with constant shaking. The wells were washed 4 times with PBS, and 25 μl of the detection antibody (Sulfo-TAG labeled anti-Aβ40 antibody supplied by MSD) was added and incubated for 1 hr at rt. After 4 washes with PBS, 150 μl of the chemiluminescence detection reagent (Read Buffer T, MSD) was added, and the plate was read on an MSD Sector Imager 6000 instrument. The calibration curve was fit into a non-linear four-parameter regression model, and the Aβ1-x concentrations were calculated for each well containing the cleared brain lysates. The percent of Aβ lowering was calculated based on the difference with the average Aβ concentration obtained for the brains from the animals treated with vehicle alone.

Sequence of hERG channel (Q12809 whole entry): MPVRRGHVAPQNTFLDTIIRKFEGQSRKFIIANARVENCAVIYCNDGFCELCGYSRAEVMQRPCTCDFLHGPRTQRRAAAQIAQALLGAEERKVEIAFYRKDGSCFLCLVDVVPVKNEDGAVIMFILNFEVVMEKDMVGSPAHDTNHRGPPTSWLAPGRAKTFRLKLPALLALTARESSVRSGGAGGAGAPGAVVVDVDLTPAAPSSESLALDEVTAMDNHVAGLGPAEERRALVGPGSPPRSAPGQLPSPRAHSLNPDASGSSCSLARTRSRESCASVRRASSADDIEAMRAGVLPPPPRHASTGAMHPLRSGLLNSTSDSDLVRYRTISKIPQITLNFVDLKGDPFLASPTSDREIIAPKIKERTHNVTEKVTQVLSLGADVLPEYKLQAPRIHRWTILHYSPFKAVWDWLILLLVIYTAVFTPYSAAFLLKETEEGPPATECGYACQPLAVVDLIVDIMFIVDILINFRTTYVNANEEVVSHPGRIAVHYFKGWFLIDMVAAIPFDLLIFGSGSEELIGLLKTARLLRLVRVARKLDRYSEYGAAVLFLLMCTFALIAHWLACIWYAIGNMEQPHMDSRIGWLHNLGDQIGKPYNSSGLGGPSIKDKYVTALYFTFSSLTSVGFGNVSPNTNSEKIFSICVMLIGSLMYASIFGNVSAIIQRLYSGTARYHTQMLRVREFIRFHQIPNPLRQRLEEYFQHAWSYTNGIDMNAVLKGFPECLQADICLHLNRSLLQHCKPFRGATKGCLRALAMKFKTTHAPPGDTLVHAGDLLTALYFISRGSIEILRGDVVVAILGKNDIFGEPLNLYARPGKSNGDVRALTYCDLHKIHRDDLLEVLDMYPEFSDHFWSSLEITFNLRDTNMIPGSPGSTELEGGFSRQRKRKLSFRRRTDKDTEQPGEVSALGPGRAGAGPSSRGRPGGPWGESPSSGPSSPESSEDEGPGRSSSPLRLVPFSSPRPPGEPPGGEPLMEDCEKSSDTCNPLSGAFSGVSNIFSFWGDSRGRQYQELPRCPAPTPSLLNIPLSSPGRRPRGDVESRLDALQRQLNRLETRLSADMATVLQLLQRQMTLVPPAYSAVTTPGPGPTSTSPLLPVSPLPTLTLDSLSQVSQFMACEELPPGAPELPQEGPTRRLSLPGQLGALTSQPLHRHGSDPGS

Compound | inhibition at 10 µM (hERG channel) [%] | In vitro Human Hepatocytes % Qh @ 1 μM (assay 4) (Human Hepatocytes) [% Qh] | % Aβ Reduction ([1]; single oral dose 25 mg/kg) [%] | % Aβ Reduction ([1]; single oral dose 12.5 mg/kg) [%]
C[C@@H]1C[C@@]2(Cc3ccc(C#N)cc3[C@]23N=C(N)N(CCC(F)(F)F)C3=O)C[C@H](C)[C@H]1O [Example 1] | 13 | 0 | 25 | 
C[C@@H]1C[C@@]2(Cc3ccc(C#N)cc3[C@]23N=C(N)N(CC(C)(C)F)C3=O)C[C@H](C)[C@H]1O [Example 2] | 4.5 | 1.6 |  | 40
C[C@@H]1C[C@@]2(Cc3ccc(C#N)cc3[C@]23N=C(N)N(CC2(F)CCOCC2)C3=O)C[C@H](C)[C@H]1O [Example 4] | 13 | 6.1 |  | 21
CC[C@@H]1C[C@@]2(Cc3ccc(C#N)cc3[C@]23N=C(N)N(CC(C)(C)F)C3=O)C[C@H](C)[C@H]1O [Example 7] | 15 | 13 | 58 | 
CC[C@@H]1C[C@]2(CC[C@H]1O)Cc1ccc(C#N)cc1[C@]21N=C(N)N(CC(C)(C)F)C1=O [Example 9] | 2.5 | 12.4 | 42 | 
